Active and inactive are the calls of the source. No cut-off for these calls is given here.
Experiments:
[1] = biological target: T1, Prostaglandin G/H synthase 1 (Bos taurus) (UniProt O62664); experiment: Inhibition of bovine COX-1 assessed as PGF2-alpha formation using arachidonic acid as substrate at 20 uM by enzyme immunoassay
T1 sequence (whole entry): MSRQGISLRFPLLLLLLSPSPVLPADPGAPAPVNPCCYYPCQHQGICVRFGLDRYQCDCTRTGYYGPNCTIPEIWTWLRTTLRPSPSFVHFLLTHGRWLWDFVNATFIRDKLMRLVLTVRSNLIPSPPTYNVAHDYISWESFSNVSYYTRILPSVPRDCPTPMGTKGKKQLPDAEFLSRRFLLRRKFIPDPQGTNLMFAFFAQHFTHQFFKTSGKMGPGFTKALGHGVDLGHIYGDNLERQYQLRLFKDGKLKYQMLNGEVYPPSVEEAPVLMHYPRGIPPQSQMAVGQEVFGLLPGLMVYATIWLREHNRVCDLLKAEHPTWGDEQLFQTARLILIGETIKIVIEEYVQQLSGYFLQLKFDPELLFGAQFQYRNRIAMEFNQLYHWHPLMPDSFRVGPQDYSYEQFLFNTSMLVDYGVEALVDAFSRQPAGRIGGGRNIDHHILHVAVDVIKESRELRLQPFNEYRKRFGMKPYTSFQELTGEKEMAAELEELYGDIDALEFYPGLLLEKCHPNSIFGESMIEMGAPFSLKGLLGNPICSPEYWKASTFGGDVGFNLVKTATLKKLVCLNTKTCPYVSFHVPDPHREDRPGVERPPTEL

[2] = system: Mus musculus; experiment: In vivo antiinflammatory activity in mouse assessed as decrease in carrageenan-induced paw edema at 0.30 mmol/kg, ip administered immediately after carrageenan injection measured after 3.5 hrs; format: functional
[3] = biological target: T2, Squalene synthase (Rattus norvegicus, UniProt Q02769); experiment: (§1) Inhibition of squalene synthase in rat liver microsomes assessed as decrease in conversion of [3H]FPP to squalene
T2 sequence (Q02769 whole entry): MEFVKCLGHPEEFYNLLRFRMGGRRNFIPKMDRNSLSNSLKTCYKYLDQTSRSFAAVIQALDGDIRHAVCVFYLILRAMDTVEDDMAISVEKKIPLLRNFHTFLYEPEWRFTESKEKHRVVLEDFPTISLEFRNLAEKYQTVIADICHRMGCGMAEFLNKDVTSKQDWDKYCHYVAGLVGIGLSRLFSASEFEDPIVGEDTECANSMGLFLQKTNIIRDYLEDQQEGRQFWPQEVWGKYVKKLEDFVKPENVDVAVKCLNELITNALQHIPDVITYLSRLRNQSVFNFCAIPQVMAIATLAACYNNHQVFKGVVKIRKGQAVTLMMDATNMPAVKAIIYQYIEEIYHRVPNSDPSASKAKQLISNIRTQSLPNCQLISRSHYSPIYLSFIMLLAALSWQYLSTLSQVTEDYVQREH

[4] = biological target: T3, Squalene synthase (Rattus norvegicus) (UniProt Q02769); experiment: as §1
T3 sequence (whole entry): T2 sequence (Q02769 whole entry)

[5] = Antioxidant activity in rat liver microsome membrane assessed as inhibition of lipid peroxidation after 45 mins by TBARS-based spectrophotometric assay; format: functional, microsomes
[6] = organism: Homo sapiens; experiment: Antioxidant activity against CuSO4-induced human LDL oxidation assessed as delta-lag time at 0.10 uM by spectrophotometric analysis; format: functional
[7] = system: Mus musculus; experiment: Toxicity in high-fat diet (35.5% w/w fat) fed SKH-2 mouse at 56 umol/kg, ip bid for 28 days by macroscopic analysis; format: organism-based; settings: in vivo, 672 h
[8] = system: Mus musculus; experiment: Antidyslipidemic activity in high-fat diet (35.5% w/w fat) fed SKH-2 mouse assessed as decrease in total cholesterol level in plasma at 56 umol/kg, ip bid for 28 days measured on day 28; format: functional; settings: SKH-2, Plasma, 672 h
[9] = system: Mus musculus; experiment: Effect on blood glucose level in high-fat diet (35.5% w/w fat) fed SKH-2 mouse at 56 umol/kg, ip bid for 28 days; format: ADME, organism-based; settings: in vivo, 672 h
[10] = system: Mus musculus; experiment: Effect on food intake high-fat diet fed SKH-2 mouse at 56 umol/kg, ip bid for 28 days; format: ADME, organism-based; settings: in vivo, 672 h
[11] = system: Rattus norvegicus; experiment: In vivo antidyslipidemic activity against Triton WR 1339-induced hyperlipidemic Wistar rat model assessed as decrease in triglyceride level in plasma at 56 umol/kg, ip administered as single dose 1 hr after Triton WR 1339 challenge measured after 24 hrs; format: functional
[12] = organism: Homo sapiens; experiment: Antioxidant activity against CuSO4-induced human LDL oxidation assessed as lag time at 0.10 uM by spectrophotometric analysis (reference value: 122 mins); format: functional
[13] = system: Radical scavenging activity; experiment: Antioxidant activity assessed as DPPH radical scavenging activity after 30 mins; format: functional
[14] = system: Mus musculus; experiment: Effect on body weight in high-fat diet (35.5% w/w fat) fed SKH-2 mouse at 56 umol/kg, ip bid for 28 days; format: ADME, organism-based; settings: in vivo, 672 h
[15] = system: Radical scavenging activity; experiment: Antioxidant activity assessed as DPPH radical scavenging activity up to 50 uM measured within 15 mins; format: functional
[16] = organism: Homo sapiens; experiment: Antioxidant activity against CuSO4-induced human LDL oxidation assessed as lag time at 0.50 uM by spectrophotometric analysis (reference value: 122 mins); format: functional
[17] = system: Mus musculus; experiment: Antidyslipidemic activity in high-fat diet (35.5% w/w fat) fed SKH-2 mouse assessed as HDL/LDL ratio in plasma at 56 umol/kg, ip bid for 28 days measured on day 28 (reference value: 0.5 no unit); format: functional
[18] = organism: Homo sapiens; experiment: Antioxidant activity against CuSO4-induced human LDL oxidation assessed as prolongation of lag time by spectrophotometric analysis; format: functional
[19] = system: Rattus norvegicus; experiment: In vivo antidyslipidemic activity against Triton WR 1339-induced hyperlipidemic Wistar rat model assessed as decrease in total cholesterol level in plasma at 56 umol/kg, ip administered as single dose 1 hr after Triton WR 1339 challenge measured after 24 hrs; format: functional
[20] = organism: Homo sapiens; experiment: Antioxidant activity against CuSO4-induced human LDL oxidation assessed as increase in lag time at 0.50 uM by spectrophotometric analysis; format: functional
[21] = organism: Homo sapiens; experiment: Antioxidant activity against CuSO4-induced human LDL oxidation assessed as inhibition of rate of conjugate diene formation at 1 uM by spectrophotometric analysis; format: functional
[22] = system: Rattus norvegicus; experiment: In vivo antidyslipidemic activity against Triton WR 1339-induced hyperlipidemic Wistar rat model assessed as decrease in LDL-cholesterol level in plasma at 56 umol/kg, ip administered as single dose 1 hr after Triton WR 1339 challenge measured after 24 hrs; format: functional
[23] = system: Mus musculus; experiment: Antidyslipidemic activity in high-fat diet (35.5% w/w fat) fed SKH-2 mouse assessed as HDL level in plasma at 56 umol/kg, ip bid for 28 days measured on day 28; format: functional, organism-based
[24] = system: Mus musculus; experiment: Antidyslipidemic activity in high-fat diet (35.5% w/w fat) fed SKH-2 mouse assessed as decrease in LDL level in plasma at 56 umol/kg, ip bid for 28 days measured on day 28; format: functional; settings: SKH-2, Plasma, 672 h
[25] = system: Mus musculus; experiment: Antidyslipidemic activity in high-fat diet (35.5% w/w fat) fed SKH-2 mouse assessed as triglyceride level in plasma at 56 umol/kg, ip bid for 28 days measured on day 28; format: functional, organism-based
[26] = organism: Homo sapiens; experiment: Antioxidant activity against CuSO4-induced human LDL oxidation assessed as inhibition of rate of conjugate diene formation at 0.50 uM by spectrophotometric analysis; format: functional
[27] = organism: Homo sapiens; experiment: Antioxidant activity against CuSO4-induced human LDL oxidation assessed as increase in lag time at 1 uM by spectrophotometric analysis; format: functional
[28] = organism: Homo sapiens; experiment: Antioxidant activity against CuSO4-induced human LDL oxidation assessed as delta-lag time at 0.50 uM by spectrophotometric analysis; format: functional
[29] = system: Mus musculus; experiment: In vivo antioxidant activity in high-fat diet (35.5% w/w fat) fed SKH-2 mouse assessed as reduction in malondialdehyde level in plasma at 56 umol/kg, ip bid for 28 days measured on day 28; format: functional; settings: SKH-2, Plasma, 672 h
[30] = organism: Homo sapiens; experiment: Antioxidant activity against CuSO4-induced human LDL oxidation assessed as inhibition of rate of conjugate diene formation at 0.10 uM by spectrophotometric analysis; format: functional
[31] = organism: Homo sapiens; experiment: Antioxidant activity against CuSO4-induced human LDL oxidation assessed as increase in lag time at 0.10 uM by spectrophotometric analysis; format: functional
[32] = system: Glycine max; experiment: Inhibition of soybean lipoxygenase using sodium linoleate as substrate up to 100 uM measured for 6 mins
[33] = system: Mus musculus; experiment: Antidyslipidemic activity in chronic high-fat diet (2.5 w/w cholesterol, 0.5% w/w cholic acid, 10% w/w peanut oil) fed SKH-2 mouse assessed as increase in HDL level in plasma at 56 umol/kg, ip bid for 30 days measured on day 30 relative to day 0; format: functional
[34] = system: Mus musculus; experiment: Antidyslipidemic activity in chronic high-fat diet (2.5 w/w cholesterol, 0.5% w/w cholic acid, 10% w/w peanut oil) fed SKH-2 mouse assessed as increase in HDL level in plasma at 56 umol/kg, ip bid for 30 days measured on day 30 relative to control; format: functional
[35] = system: Mus musculus; experiment: Effect on food intake in chronic high-fat diet (2.5 w/w cholesterol, 0.5% w/w cholic acid, 10% w/w peanut oil) fed SKH-2 mouse at 56 umol/kg, ip bid for 30 days; format: ADME, organism-based; settings: in vivo, 720 h
[36] = system: Mus musculus; experiment: Antidyslipidemic activity in chronic high-fat diet (2.5 w/w cholesterol, 0.5% w/w cholic acid, 10% w/w peanut oil) fed SKH-2 mouse assessed as HDL/LDL ratio in plasma at 56 umol/kg, ip bid for 30 days measured on day 30 (reference value: 0.2 no unit); format: functional
[37] = system: Mus musculus; experiment: Antidyslipidemic activity in chronic high-fat diet (2.5 w/w cholesterol, 0.5% w/w cholic acid, 10% w/w peanut oil) fed SKH-2 mouse assessed as decrease in LDL level in plasma at 56 umol/kg, ip bid for 21 days; format: functional; settings: SKH-2, Plasma, 504 h
[38] = system: Mus musculus; experiment: Effect on body weight in chronic high-fat diet (2.5 w/w cholesterol, 0.5% w/w cholic acid, 10% w/w peanut oil) fed SKH-2 mouse at 56 umol/kg, ip bid for 30 days; format: ADME, organism-based; settings: in vivo, 720 h
[39] = system: Mus musculus; experiment: Effect on blood glucose level in chronic high-fat diet (2.5 w/w cholesterol, 0.5% w/w cholic acid, 10% w/w peanut oil) fed SKH-2 mouse at 56 umol/kg, ip bid for 30 days; format: ADME, organism-based; settings: in vivo, 720 h
[40] = system: Mus musculus; experiment: Antidyslipidemic activity in chronic high-fat diet (2.5 w/w cholesterol, 0.5% w/w cholic acid, 10% w/w peanut oil) fed SKH-2 mouse assessed as decrease in total cholesterol level in plasma at 56 umol/kg, ip bid for 21 days; format: functional; settings: SKH-2, Plasma, 504 h

With `CN1CC(O)(c2ccc3c(c2)Nc2ccccc2S3)OC2CCCCC21` (racemic) the inhibition [1] was 55%, the inhibition in vivo at 300 µmol/kg [2] was 41% and the IC50 [3] was 11.9 µM. The inhibition [4] was “Dose-dependent effect”, the IC50 [5] was 0.93 µM and the TIME [6] was -0.217 h. For the same compound, the Activity [7] was “Non-toxic”, the inhibition in vivo at 56 µmol/kg [8] was 54% and the Activity [9] was “Non-toxic”. For the same compound, the Activity [10] was “Non-toxic”, the inhibition in vivo at 56 µmol/kg [11] was 77% and the TIME [12] was 1.82 h. For the same compound, the IC50 [13] was 188 µM, the Activity [14] was “Non-toxic” and the Activity [15] was “Active”. The TIME [16] was 3.33 h, the Ratio [17] was 1.7 and the Activity [18] was “Dose-dependent effect”. For the same compound, the inhibition in vivo at 56 µmol/kg [19] was 50%, the Activity [20] was 64% and the inhibition [21] was 100%. The inhibition in vivo at 56 µmol/kg [22] was 68%, the Activity [23] was “inactive” and the inhibition in vivo at 56 µmol/kg [24] was 76%. For the same compound, the Activity [25] was “inactive”, the inhibition [26] was 41% and the Activity [27] was 100%. The TIME [28] was 1.3 h, the inhibition in vivo at 56 µmol/kg [29] was 38% and the inhibition [30] was 0%. The Activity [31] was 0% and the inhibition [32] was “inactive”.
For `CN1CC(O)(c2ccc3c(c2)Nc2ccccc2S3)Sc2ccccc21` (stereo unspecified), the inhibition [1] was 67%, the IC50 [3] was 3.6 µM and the inhibition [4] was “Dose-dependent effect”. The IC50 [5] was 0.98 µM, the Activity [33] was 100% and the IC50 [13] was 77 µM. For the same compound, the Activity [34] was 32%, the Activity [15] was “Active” and the Activity [35] was “Non-toxic”. The Ratio [36] was 1.3, the inhibition in vivo at 56 µmol/kg [37] was 80% and the Activity [38] was “Non-toxic”. The Activity [39] was “Non-toxic” and the inhibition in vivo at 56 µmol/kg [40] was 48%.

— ChEMBL document CHEMBL3232866, “Design of novel potent antihyperlipidemic agents with antioxidant/anti-inflammatory properties: exploiting phenothiazine's strong antioxidant activity” (J Med Chem, 2014)
